In general, pKi refers to the negative decadic logarithm of the Ki, by convention in mol/L.

SMILES strings stand for the structures. pKi: −log10 of the molar value. A value given as a limit tells only on which side of the number the result lay.

The source of these data is US20230065745A1, “PIPERIDINE-2,6-DIONE DERIVATIVES WHICH BIND TO CEREBLON, AND METHODS OF USE THEREOF” (Captor Therapeutics S.A., priority 2019, published 2023).

The target of test [1] is CRBN-DDB1 protein complex (Homo sapiens, UniProt Q96SW2). The experiment in a line: Fluorescence Polarization (FP) assay, displacement of Cy5-labelled thalidomide. Particulars: 25 nM CRBN-DDB1, 5 nM Cy5-labelled thalidomide, read-out: CRBN binding Ki. How it is done: CRBN-DDB1 protein complex was mixed with Cy5-labelled thalidomide and a compound to be tested (the “test compound”). […] The test solution was added to a 384-well assay plate.
The plate was spun-down (1 min, 1000 rpm, 22° C.) and then shaken using a VibroTurbulator for 10 min at room temperature (20-25° C.), with the frequency set to level 3. The assay plate with protein and the tracer was incubated for 60 min at room temperature (20-25° C.) prior to read-out with a plate reader.
The FP experiment was carried out with various concentrations of the test compounds in order to measure Ki values.
For orientation: Fluorescence polarisation rises when a labelled molecule tumbles more slowly, as on binding a larger partner.

The subject of test [2] is IKZF1. The experiment in a line: IKZF1 degradation assay, H929 cell line (Western blot densitometry). The format is cell-based. The settings on record: for % of IKZF1 protein reduction, based on densitometry values: 24 h. The method, then:
Cells were seeded on 6- or 12-well plates, and the compounds to be tested were added at the desired concentration range. […] After 6 or 24 h incubation (3TC, 5% CO2), cells were harvested, washed and cell lysates were prepared using RIPA lysis buffer. The amount of protein was determined via BCA assay, and the appropriate quantity was then loaded on the precast gel for the protein separation. After primary and secondary Ab staining, the membranes were washed and signals developed. The densitometry analysis was implemented to obtain the numeric values used later in the protein level evaluation process. […] The treatment with all compounds was carried out for 24 h.
(In general: In western blotting, separated proteins are transferred to a membrane and probed.)

Test [3] has as its system IKZF3. Description: IKZF3 degradation assay, H929 cell line (Western blot densitometry). In kind it is cell-based. Particulars: 24 h. How it is done:
Cells were seeded on 6- or 12-well plates, and the compounds to be tested were added at the desired concentration range. […] After 24 h incubation (3TC, 5% CO2), cells were harvested, washed and cell lysates were prepared using RIPA lysis buffer. The amount of protein was determined via BCA assay, and the appropriate quantity was then loaded on the precast gel for the protein separation. After primary and secondary Ab staining, the membranes were washed and signals developed. The densitometry analysis was implemented to obtain the numeric values used later in the protein level evaluation process.
(§1) The treatment with all compounds was carried out for 24 h.
(§2) Densitometry values are normalized to the loading control ((3-ACTIN) and presented as % of DMSO control, using the following labels: […]

Test [4] concerns CK1α. Description: CK1α degradation assay, Kelly cell line (Western blot densitometry). In kind it is cell-based. The settings on record: 24 h. How it is done: Cells were seeded on 6-well plates, and the compounds to be tested were added at the desired concentration range. […] After 24 h incubation (37° C., 5% CO2), cells were washed and cell lysates were prepared using RIPA lysis buffer. The amount of protein was determined via BCA assay, and the appropriate quantity was then loaded on the precast gel for the protein separation. After primary and secondary Ab staining, the membranes were washed and signals developed. The densitometry analysis was implemented to obtain the numeric values used later in the protein level evaluation process.
as §1, §2

Chain of CRBN-DDB1 protein complex (Q96SW2 whole entry): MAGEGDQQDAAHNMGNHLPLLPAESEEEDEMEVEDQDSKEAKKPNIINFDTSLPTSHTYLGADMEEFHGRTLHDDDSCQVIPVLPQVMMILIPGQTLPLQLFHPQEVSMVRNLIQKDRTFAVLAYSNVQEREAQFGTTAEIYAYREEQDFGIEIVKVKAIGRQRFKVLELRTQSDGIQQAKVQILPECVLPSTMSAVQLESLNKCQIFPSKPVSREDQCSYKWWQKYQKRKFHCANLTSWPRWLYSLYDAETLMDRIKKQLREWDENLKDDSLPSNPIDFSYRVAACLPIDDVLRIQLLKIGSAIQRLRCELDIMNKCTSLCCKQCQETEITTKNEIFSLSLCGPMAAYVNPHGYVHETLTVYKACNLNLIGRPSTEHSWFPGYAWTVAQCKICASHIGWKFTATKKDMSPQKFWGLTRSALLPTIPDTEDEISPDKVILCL
Chain of CRBN-DDB1 protein complex (Q16531 whole entry partner): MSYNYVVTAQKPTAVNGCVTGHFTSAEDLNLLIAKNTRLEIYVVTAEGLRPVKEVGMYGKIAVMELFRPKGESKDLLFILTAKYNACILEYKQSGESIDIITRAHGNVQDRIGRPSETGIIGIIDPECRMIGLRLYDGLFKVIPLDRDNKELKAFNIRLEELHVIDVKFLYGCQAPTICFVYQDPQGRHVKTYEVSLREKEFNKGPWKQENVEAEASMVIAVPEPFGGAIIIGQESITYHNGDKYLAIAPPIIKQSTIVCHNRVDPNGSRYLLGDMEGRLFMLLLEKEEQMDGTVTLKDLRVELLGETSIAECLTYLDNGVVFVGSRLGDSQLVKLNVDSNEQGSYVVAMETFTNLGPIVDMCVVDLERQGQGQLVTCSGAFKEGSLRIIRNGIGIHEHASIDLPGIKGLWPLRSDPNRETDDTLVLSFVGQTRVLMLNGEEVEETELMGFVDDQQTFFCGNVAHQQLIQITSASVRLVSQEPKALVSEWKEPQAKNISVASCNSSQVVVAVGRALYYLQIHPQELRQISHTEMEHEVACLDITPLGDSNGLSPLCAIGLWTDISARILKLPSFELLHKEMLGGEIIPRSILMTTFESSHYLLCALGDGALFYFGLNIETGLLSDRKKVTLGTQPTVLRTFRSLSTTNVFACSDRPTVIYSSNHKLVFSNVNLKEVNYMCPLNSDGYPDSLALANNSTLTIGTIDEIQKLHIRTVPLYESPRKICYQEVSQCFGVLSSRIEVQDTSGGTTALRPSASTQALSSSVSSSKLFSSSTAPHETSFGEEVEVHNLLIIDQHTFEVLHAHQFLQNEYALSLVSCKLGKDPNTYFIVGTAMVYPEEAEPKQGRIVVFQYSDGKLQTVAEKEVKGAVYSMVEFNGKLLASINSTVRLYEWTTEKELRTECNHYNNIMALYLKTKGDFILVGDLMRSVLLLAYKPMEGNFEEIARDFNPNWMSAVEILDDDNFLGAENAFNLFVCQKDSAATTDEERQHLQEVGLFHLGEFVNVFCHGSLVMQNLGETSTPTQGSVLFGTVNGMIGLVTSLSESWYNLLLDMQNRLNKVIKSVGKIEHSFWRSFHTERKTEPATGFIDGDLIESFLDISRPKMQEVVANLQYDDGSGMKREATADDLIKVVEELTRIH

For `O=C1CCC(NC(=O)c2scc3cccnc23)C(=O)N1` (stereo not shown) [Compound 107, N-(2,6-dioxopiperidin-3-yl)thieno[3,4-b]pyridine-7-carboxamide], the negative-log Ki (pKi) in test [1] was greater than 5.30. Moreover, the “% of IKZF1 protein reduction, based on densitometry values” (from here on “% of IKZF1 protein reduction, based”) in test [2] (1 μM) and in test [2] (10 μM) was ≤25% (≤25% for 0-25% of IKZF1 protein reduction) in each case. For the same compound, the “% of IKZF3 protein reduction, based on densitometry values” (from here on “% of IKZF3 protein reduction, based”) in test [3] (1 μM) and in test [3] (10 μM) was ≤25% (≤25% for 0-25% of IKZF3 protein reduction) throughout.
Take `Nc1cccc2c1C(=O)N(C1CCC(=O)NC1=O)C2=O` (stereo not shown) [Pomalidomide, pomalidomide, reference compound]: the “% of CK1α protein reduction, based on densitometry values” (from here on “% of CK1α protein reduction, based”) in test [4] (1 μM), in test [4] (10 μM) and in test [4] (20 μM) was >25% (>25% for 26-74% of CK1α protein reduction) each time. Also, the “CK1α degradation (in words)” value in test [4] is “to a lesser degree”. Besides, the “% of IKZF1 protein reduction, based” value in test [2] (1 μM) and in test [2] (10 μM) was ≥75% (≥75% for 75-100% of IKZF1 protein reduction) throughout. Besides, the “% of IKZF1 protein reduction, IKZF 1 (24 H, 20 μM)” value in test [2] is recorded as ≥75% (≥75% for 75-100% of IKZF1 protein reduction). Further, the “% of IKZF3 protein reduction, based” value in test [3] (1 μM) and in test [3] (10 μM) was ≥75% (≥75% for 75-100% of IKZF3 protein reduction) throughout.
Consider `COCc1ncc(C(=O)NC2CCC(=O)NC2=O)s1` (stereo not shown) [Compound 111, N-(2,6-dioxopiperidin-3-yl)-2-(methoxymethyl)thiazole-5-carboxamide], for which the pKi in test [1] is 4.30 to 5.00. Also, the “% of IKZF1 protein reduction, based” value in test [2] (1 μM) and in test [2] (10 μM) was ≤25% (≤25% for 0-25% of IKZF1 protein reduction) in each case. Also, the “% of IKZF1 protein reduction, IKZF 1 (24 H, 20 μM)” value in test [2] is ≤25% (≤25% for 0-25% of IKZF1 protein reduction). In addition, the “% of IKZF3 protein reduction, based” value in test [3] (1 μM) and in test [3] (10 μM) was ≤25% (≤25% for 0-25% of IKZF3 protein reduction) in each case.
For `COc1sccc1C(=O)N[C@H]1CCC(=O)NC1=O` [Compound 21, (S)—N-(2,6-dioxopiperidin-3-yl)-2-methoxythiophene-3-carboxamide], the pKi in test [1] is greater than 5.30. The “% of CK1α protein reduction, based” value in test [4] (20 μM) is listed as >25% (>25% for 26-74% of CK1α protein reduction). Moreover, in test [2], the “% of IKZF1 protein reduction, IKZF 1 (24 H, 20 μM)” value is reported as ≤25% (≤25% for 0-25% of IKZF1 protein reduction).
As to `Cc1nc2cccc(N)c2c(=O)n1C1CCC(=O)NC1=O` (stereo not shown) [CC-122, reference compound], the “% of CK1α protein reduction, based” value in test [4] (1 μM), in test [4] (10 μM) and in test [4] (20 μM) was ≤25% (≤25% for 0-25% of CK1α protein reduction) each time. Also, in test [4], the “CK1α degradation (in words)” value is “lack of degradation”. The “% of IKZF1 protein reduction, based” value in test [2] (1 μM) and in test [2] (10 μM) was ≥75% (≥75% for 75-100% of IKZF1 protein reduction) each time. For the same compound, the “% of IKZF3 protein reduction, based” value in test [3] (1 μM) and in test [3] (10 μM) was ≥75% (≥75% for 75-100% of IKZF3 protein reduction) each time.
For the compound `COc1cscc1C(=O)NC1CCC(=O)NC1=O` (stereo not shown) [Compound 54, N-(2,6-dioxopiperidin-3-yl)-4-methoxythiophene-3-carboxamide], the pKi in test [1] was greater than 5.30. Moreover, the “% of CK1α protein reduction, based” value in test [4] (1 μM), in test [4] (10 μM) and in test [4] (20 μM) was >25% (>25% for 26-74% of CK1α protein reduction) throughout.
Consider `COc1sccc1C(=O)N[C@@H]1CCC(=O)NC1=O` [Compound 22, (R)—N-(2,6-dioxopiperidin-3-yl)-2-methoxythiophene-3-carboxamide], for which the pKi in test [1] is 4.30 to 5.00. For the same compound, the “% of CK1α protein reduction, based” value in test [4] (20 μM) is given as >25% (>25% for 26-74% of CK1α protein reduction). The “% of IKZF1 protein reduction, IKZF 1 (24 H, 20 μM)” value in test [2] is on record as ≤25% (≤25% for 0-25% of IKZF1 protein reduction).
For the compound `COc1ccsc1C(=O)NC1CCC(=O)NC1=O` (stereo not shown) [Compound 108, N-(2,6-dioxopiperidin-3-yl)-3-methoxythiophene-2-carboxamide], in test [1], the pKi is greater than 5.30. Also, the “% of CK1α protein reduction, based” value in test [4] (20 μM) is recorded as >25% (>25% for 26-74% of CK1α protein reduction). Also, the “% of IKZF1 protein reduction, based” value in test [2] (1 μM) and in test [2] (10 μM) was ≤25% (≤25% for 0-25% of IKZF1 protein reduction) in each case. The “% of IKZF1 protein reduction, IKZF 1 (24 H, 20 μM)” value in test [2] was ≤25% (≤25% for 0-25% of IKZF1 protein reduction). Also, the “% of IKZF3 protein reduction, based” value in test [3] (1 μM) and in test [3] (10 μM) was ≤25% (≤25% for 0-25% of IKZF3 protein reduction) each time.
`O=C1CCC(NC(=O)c2sc(Cl)c3cccnc23)C(=O)N1` (stereo not shown) [Compound 106, 5-chloro-N-(2,6-dioxopiperidin-3-yl)thieno[3,4-b]pyridine-7-carboxamide]: the pKi in test [1] is greater than 5.30. The “% of IKZF1 protein reduction, based” value in test [2] (1 μM) and in test [2] (10 μM) was ≤25% (≤25% for 0-25% of IKZF1 protein reduction) in each case. Further, the “% of IKZF1 protein reduction, IKZF 1 (24 H, 20 μM)” value in test [2] is reported as ≤25% (≤25% for 0-25% of IKZF1 protein reduction). Besides, the “% of IKZF3 protein reduction, based” value in test [3] (1 μM) and in test [3] (10 μM) was ≤25% (≤25% for 0-25% of IKZF3 protein reduction) each time.
Regarding `CNc1sc(Cl)cc1C(=O)NC1CCC(=O)NC1=O` (stereo not shown) [Compound 16, 5-chloro-N-(2,6-dioxopiperidin-3-yl)-2-(methylamino)thiophene-3-carboxamide], the pKi in test [1] is greater than 5.30. In test [2], the “% of IKZF1 protein reduction, IKZF 1 (24 H, 20 μM)” value is ≤25% (≤25% for 0-25% of IKZF1 protein reduction).
The matching figures for `O=C1CCC(NC(=O)c2cnc(CNC(=O)OCc3ccccc3)s2)C(=O)N1` (stereo not shown) [Compound 74, benzyl ((5-((2,6-dioxopiperidin-3-yl)carbamoyl)thiazol-2-yl)methyl)carbamate]: 4.30 to 5.00 and ≤25% (≤25% for 0-25% of IKZF1 protein reduction).
As to `CC(=O)Nc1scc(Cl)c1C(=O)NC1CCC(=O)NC1=O` (stereo not shown) [Compound 43, 4-chloro-N-(2,6-dioxopiperidin-3-yl)-2-acetamidothiophene-3-carboxamide], in test [1], the pKi is 4.30 to 5.00. Moreover, the “% of IKZF1 protein reduction, IKZF 1 (24 H, 20 μM)” value in test [2] is ≤25% (≤25% for 0-25% of IKZF1 protein reduction).
For the compound `CC(=O)Nc1sc(Cl)cc1C(=O)NC1CCC(=O)NC1=O` (stereo not shown) [Compound 12, 5-Chloro-N-(2,6-dioxopiperidin-3-yl)-2-acetamidothiophene-3-carboxamide], the pKi in test [1] was 5.00 to 5.30. For the same compound, the “% of IKZF1 protein reduction, IKZF 1 (24 H, 20 μM)” value in test [2] was ≤25% (≤25% for 0-25% of IKZF1 protein reduction).
With `COc1sccc1C(=O)NC1CCC(=O)NC1=O` (stereo not shown) [Compound 20, N-(2,6-dioxopiperidin-3-yl)-2-methoxythiophene-3-carboxamide], in test [1], the pKi is greater than 5.30. Moreover, the “% of IKZF1 protein reduction, based” value in test [2] (1 μM) and in test [2] (10 μM) was ≤25% (≤25% for 0-25% of IKZF1 protein reduction) throughout. Also, in test [2], the “% of IKZF1 protein reduction, IKZF 1 (24 H, 20 μM)” value is reported as ≤25% (≤25% for 0-25% of IKZF1 protein reduction). Moreover, the “% of IKZF3 protein reduction, based” value in test [3] (1 μM) and in test [3] (10 μM) was ≤25% (≤25% for 0-25% of IKZF3 protein reduction) each time.
Turning to `O=C1CCC(NC(=O)c2csc(-c3ccccc3)c2)C(=O)N1` (stereo not shown) [Compound 57, N-(2,6-dioxopiperidin-3-yl)-5-phenylthiophene-3-carboxamide], the pKi in test [1] was greater than 5.30. The “% of IKZF1 protein reduction, IKZF 1 (24 H, 20 μM)” value in test [2] is on record as ≤25% (≤25% for 0-25% of IKZF1 protein reduction).
